Experimental data reported in patent US20220330549A1, “USE OF N-BENZYLBENZAMIDE-BASED COMPOUND AS HERBICIDE” (Northwest A&F University, priority 2020, published 2022).

Key:
Assay type in all cases: in vivo
Barnyard grass [1] = test: Herbicidal activity test for indoor pre-emergence soil treatment; parameters: key: level 1-9; higher = more weed remaining vs blank control; details: 150 g a.i./ha, visual inspection 21 days after treatment
Outline: (§1)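 Pre-emergence soil spray per NY/T 1155.3-2006: weed seeds sown in moistened neutral sandy loam (organic content ≤2%), covered with 0.5–2.0 cm soil, then sprayed 24 h later with a water-diluted 10% emulsifiable concentrate at 150 g(a.i.)/ha. Visual rating after 21 days on a 1–9 scale.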

Piemarker [2] = test: as above; parameters: key: level 1-9; higher = more weed remaining vs blank control; details: 150 g a.i./ha, visual inspection 21 days after treatment
Outline: as §1

green bristlegrass [3] = test: as above; parameters: key: level 1-9; higher = more weed remaining vs blank control; details: 150 g a.i./ha, visual inspection 21 days after treatment
Outline: as §1

Amaranthus retroflexus [4] = test: as above; parameters: key: 1-9 levels; higher = more weed remaining vs blank control; details: 150 g a.i./ha, visual inspection 21 days after treatment
Outline: as §1

Digitaria sanguinalis [5] = test: as above; parameters: key: 1-9 levels; higher = more weed remaining vs blank control; details: 150 g a.i./ha, visual inspection 21 days after treatment
Outline: as §1

Humulus scandens [6] = test: as above; details: 150 g a.i./ha, visual inspection 21 days after treatment
Outline: as §1

Amaranthus retroflexus [7] = test: Herbicidal activity test for indoor post-emergence spraying on stems and leaves; parameters: key: grade level by weed remaining vs blank control, e.g. 5 = 10.1-15%; details: 150 g a.i./ha, visual inspection 21 days after treatment
Outline: (§2)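 Run per NY/T 1155.4-2006: weeds sown, grown in greenhouse, then sprayed post-emergence on stems and leaves. Effect scored visually 21 days after treatment on a graded level scale relative to weed in the blank control area.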

Barnyard grass [8] = test: as above; parameters: key: grade level by weed remaining vs blank control, e.g. 5 = 10.1-15%; details: 150 g a.i./ha, visual inspection 21 days after treatment
Outline: as §2

Digitaria sanguinalis [9] = test: as above; parameters: key: grade level by weed remaining vs blank control, e.g. 5 = 10.1-15%; details: 150 g a.i./ha, visual inspection 21 days after treatment
Outline: as §2

Humulus scandens [10] = test: as above; parameters: key: grade level by weed remaining vs blank control, e.g. 5 = 10.1-15%; details: 150 g a.i./ha, visual inspection 21 days after treatment
Outline: as §2

Piemarker [11] = test: as above; parameters: key: grade level by weed remaining vs blank control, e.g. 5 = 10.1-15%; details: 150 g a.i./ha, visual inspection 21 days after treatment
Outline: as §2

green bristlegrass [12] = test: as above; parameters: key: grade level by weed remaining vs blank control, e.g. 5 = 10.1-15%; details: 150 g a.i./ha, visual inspection 21 days after treatment
Outline: as §2

Broadleaf weed = test: Post-emergence herbicidal activity test in a paddy field; parameters: key: level scale; higher level = more weed left vs blank control; details: 150 g a.i./ha (penoxsulam control 250 g(a.i.)/h)
Outline: (§3)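 Efficacy was visually estimated 15 and 30 days after spraying, grading weed coverage relative to an untreated neighbouring plot (level 2 = 0 to 2.5%, level 9 = 67.6 to 100%). Treatments were 150 g(a.i.)/ha from 10% emulsifiable concentrates applied at the 4-5 leaf rice stage, four repeats of 50 m^2 each.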

Cyperaceae = test: as above; parameters: key: level scale; higher level = more weed left vs blank control; details: 150 g a.i./ha (penoxsulam control 250 g(a.i.)/h)
Outline: as §3

Gramineae = test: as above; parameters: key: level scale; higher level = more weed left vs blank control; details: 150 g a.i./ha (penoxsulam control 250 g(a.i.)/h)
Outline: as §3

Acalypha australis = test: Field test for weed control in a corn field; details: 150 g a.i./ha, after treatment
Outline: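 Post-emergence field trial in a corn field following GB/T 17980.42-2000. Test compounds were formulated as 10% emulsifiable concentrates, diluted in water, and sprayed at 150 g(a.i.)/ha when corn had 2 to 5 leaves, with 4 replicates on 20 m^2 plots. Mesotrione 25% oil dispersion served as the control agent. Weed control was scored on a 1-9 scale.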

Amaranthus retroflexus [13] = test: Field test for weed control in a corn field; details: 150 g a.i./ha, 30 days after treatment
Outline: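 Field efficacy trial in a corn field following GB/T 17980.42-2000. Test compounds were formulated as 10% emulsifiable concentrates, diluted in water and sprayed post-emergence when corn had 2 to 5 leaves. Each treatment covered 20 m^2 with 4 replicates. A 25% mesotrione oil dispersion served as control. Damage to Amaranthus retroflexus was rated on a 1-9 scale against untreated blank plots.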

Barnyard grass [14] = test: Field test for weed control in a corn field; details: 150 g a.i./ha, 30 days after treatment
Outline: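 Corn-field efficacy trial following GB/T 17980.42-2000. Test compounds were formulated as 10% emulsifiable concentrates, diluted in water and sprayed post-emergence at 150 g(a.i.)/ha when corn had 2 to 5 leaves. Each treatment was replicated 4 times on 20 m^2 plots. Barnyard grass control was rated on a 1-9 damage scale.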

Chenopodium album = test: Field test for weed control in a corn field; details: 150 g a.i./ha, after treatment
Outline: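 A corn-field efficacy trial following GB/T 17980.42-2000 tested post-emergence control of Chenopodium album. Test compounds formulated as 10% emulsifiable concentrates were diluted in water and sprayed at 150 g(a.i.)/ha when the corn had 2 leaves to 5 leaves, on 20 m^2 plots with 4 replicates. Herbicidal activity was rated on a 1-9 scale by damage symptoms and severity.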

Convolvulus arvensis = test: Field test for weed control in a corn field; details: 150 g a.i./ha, after treatment
Outline: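 Field trial of weed control against Convolvulus arvensis in corn, run following GB/T 17980.42-2000. Test agents were formulated as 10% emulsifiable concentrates and sprayed in water at 150 g(a.i.)/ha when corn plants had 2 to 5 leaves. Each treatment was replicated 4 times on 20 m^2 plots, and 25% mesotrione oil dispersion served as the control agent.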

Digitaria sanguinalis [15] = test: Field test for weed control in a corn field; details: 150 g a.i./ha, after treatment
Outline: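 Field trial in a corn field following GB/T 17980.42-2000. Test compounds were formulated as 10% emulsifiable concentrates, diluted in water and sprayed post-emergence at 150 g(a.i.)/ha when corn had 2 to 5 leaves, with 4 replicates on 20 m^2 plots. Control of Digitaria sanguinalis was scored on a 1-9 scale based on weed damage relative to the untreated blank area.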

Portulaca oleracea = test: Field test for weed control in a corn field; details: 150 g a.i./ha, after treatment
Outline: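 Field efficacy trial in corn following GB/T 17980.42-2000. Test compounds were prepared as 10% emulsifiable concentrates, diluted in water, and sprayed at 150 g(a.i.)/ha when corn had 2 to 5 leaves after sowing. Plots were 20 m^2 with 4 replicates per treatment. Herbicidal activity was scored on a 1-9 scale from weed damage symptoms and severity.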

Solanum nigrum = test: Field test for weed control in a corn field; details: 150 g a.i./ha, 30 days after treatment
Outline: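 Post-emergence weed control was tested in a corn field following GB/T 17980.42-2000. Compounds were made into 10% emulsifiable concentrates, diluted in water and sprayed at 150 g(a.i.)/ha when corn had 2 to 5 leaves after sowing, in 20 m^2 plots with 4 replicates. Effects on Solanum nigrum were graded on a 1-9 scale relative to the blank control area.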

goosegrass = test: Field test for weed control in a corn field; details: 150 g a.i./ha, after treatment
Outline: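 Weed control efficacy against goosegrass was tested in a corn field following GB/T 17980.42-2000. Compounds formulated as 10% emulsifiable concentrates were diluted in water and sprayed post-emergence at 150 g(a.i.)/ha when corn had 2 to 5 leaves, with 4 replicates of 20 m^2 plots. Herbicidal activity was rated on a 1-9 scale by damage symptoms and severity.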

green bristlegrass [16] = test: Field test for weed control in a corn field; details: 150 g a.i./ha, after treatment
Outline: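 Post-emergence weed control was tested in a corn field following GB/T 17980.42-2000. When the corn had 2 leaves to 5 leaves after sowing, 10% emulsifiable concentrates diluted in water were sprayed at 150 g(a.i.)/ha on 20 m^2 plots, four replicates per treatment. Effects on green bristlegrass were scored on a 1-9 damage scale relative to the blank control area.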

nutgrass flatsedge = test: Field test for weed control in a corn field; details: 150 g a.i./ha, after treatment
Outline: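 A corn field efficacy trial following GB/T 17980.42-2000 assessed post-emergence control of nutgrass flatsedge. Test compounds were formulated as 10% emulsifiable concentrates, diluted in water, and sprayed at 150 g(a.i.)/ha when the corn had 2 to 5 leaves. Each treatment had 4 replicates on 20 m^2 plots. Herbicidal activity was graded on a 1-9 scale by damage symptoms and severity.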

Row | Structure (SMILES) | Herbicidal Activity Barnyard grass (Barnyard grass [1]) | Herbicidal Activity Piemarker (Piemarker [2]) | Herbicidal Activity Green bristlegrass (green bristlegrass [3]) | Herbicidal Activity Amaranthus retroflexus (Amaranthus retroflexus [4]) | Herbicidal Activity Digitaria sanguinalis (Digitaria sanguinalis [5]) | Herbicidal Activity Humulus scandens (Humulus scandens [6]) | Herbicidal Activity Amaranthus retroflexus (Amaranthus retroflexus [7]) | Herbicidal Activity Barnyard grass (Barnyard grass [8]) | Herbicidal Activity Digitaria sanguinalis (Digitaria sanguinalis [9]) | Herbicidal Activity Humulus scandens (Humulus scandens [10]) | Herbicidal Activity Piemarker (Piemarker [11]) | Herbicidal Activity Green bristlegrass (green bristlegrass [12]) | Herbicidal activity 15 days after treatment Broadleaf weed (Broadleaf weed) | Herbicidal activity 30 days after treatment Broadleaf weed (Broadleaf weed) | Herbicidal activity 15 days after treatment Cyperaceae (Cyperaceae) | Herbicidal activity 30 days after treatment Cyperaceae (Cyperaceae) | Herbicidal activity 15 days after treatment Gramineae (Gramineae) | Herbicidal activity 30 days after treatment Gramineae (Gramineae) | Post-emergence weed control effect, Acalypha australis (Acalypha australis) | Post-emergence weed control effect, Amaranthus retroflexus (Amaranthus retroflexus [13]) | other results
1 | COc1ccc(OC)c(C(=O)NCc2cccc(C)c2)c1 [Compound A35] | 1 | 1 | 1 | 1 | 2 (equivalent to 0 to 2.5% of the weed in the blank control area) | 2 (equivalent to 0 to 2.5% of the weed in the blank control area) | 1 | 1 | 1 | 1 | 1 | 1 | 1 | 2 (equivalent to 0 to 2.5% of the weed in the blank control area) | 1 | 2 (equivalent to 0 to 2.5% of the weed in the blank control area) | 2 (equivalent to 0 to 2.5% of the weed in the blank control area) | 1 | 2 (equivalent to 0 to 2.5% of the weed in the blank control area) | 1 | Post-emergence weed control effect, Barnyard grass (Barnyard grass [14]): 1; Post-emergence weed control effect, Chenopodium album (Chenopodium album): 1; Post-emergence weed control effect, Convolvulus arvensis (Convolvulus arvensis): 2 (equivalent to 0 to 2.5% of the weed in the blank control area); Post-emergence weed control effect, Digitaria sanguinalis (Digitaria sanguinalis [15]): 2 (equivalent to 0 to 2.5% of the weed in the blank control area); Post-emergence weed control effect, Portulaca oleracea (Portulaca oleracea): 1; Post-emergence weed control effect, Solanum nigrum (Solanum nigrum): 2 (equivalent to 0 to 2.5% of the weed in the blank control area); Post-emergence weed control effect, Goose grass (goosegrass): 2 (equivalent to 0 to 2.5% of the weed in the blank control area); Post-emergence weed control effect, Green bristlegrass (green bristlegrass [16]): 2 (equivalent to 0 to 2.5% of the weed in the blank control area); Post-emergence weed control effect, Nutgrass flatsedge (nutgrass flatsedge): 2 (equivalent to 0 to 2.5% of the weed in the blank control area)
2 | COc1ncccc1C(=O)NCc1cccc(C)c1 [Compound A85] | 1 | 1 | 1 | 2 (equivalent to 0 to 2.5% of the weed in the blank control area) | 1 | 3 (equivalent to 2.6 to 5% of the weed in the blank control area) | 1 | 1 | 1 | 1 | 1 | 1 | 1 | 1 | 1 | 1 | 2 (equivalent to 0 to 2.5% of the weed in the blank control area) | 1 | 1 | 1 | Post-emergence weed control effect, Barnyard grass (Barnyard grass [14]): 1; Post-emergence weed control effect, Chenopodium album (Chenopodium album): 1; Post-emergence weed control effect, Convolvulus arvensis (Convolvulus arvensis): 1; Post-emergence weed control effect, Digitaria sanguinalis (Digitaria sanguinalis [15]): 2 (equivalent to 0 to 2.5% of the weed in the blank control area); Post-emergence weed control effect, Portulaca oleracea (Portulaca oleracea): 1; Post-emergence weed control effect, Solanum nigrum (Solanum nigrum): 2 (equivalent to 0 to 2.5% of the weed in the blank control area); Post-emergence weed control effect, Goose grass (goosegrass): 2 (equivalent to 0 to 2.5% of the weed in the blank control area); Post-emergence weed control effect, Green bristlegrass (green bristlegrass [16]): 1; Post-emergence weed control effect, Nutgrass flatsedge (nutgrass flatsedge): 2 (equivalent to 0 to 2.5% of the weed in the blank control area)
